PMC7712541, “Seven New Cytotoxic and Antimicrobial Xanthoquinodins from Jugulospora vestita” (Journal of Fungi, 2020)
Converted amounts (≈) assume the structure as drawn.

Tests used:
Cytotoxicity, MTT method = experiment: Cytotoxicity, MTT method
Method: (§1) Compounds were tested for their antimicrobial activity against […] fungi (Candida albicans, Mucor hiemails, Pichia anomala, Rhodotorula glutinis and Schizosaccharomyces pombe), four different Gram-positive bacteria (Bacillus subtilis, Micrococcus luteus, Mycobacterium smegmatis and Staphylococcus aureus), and three Gram-negative bacteria (Chromobacterium violaceum, Escherichia coli and Pseudomonas aeruginosa), using oxytetracycline as a positive control against Gram-positive and Gram-negative bacteria, while nystatin was used as an antifungal positive control. Besides, cytotoxicities of the compounds against seven mammalian cell lines (human endocervical adenocarcinoma KB 3.1, breast cancer MCF-7, lung cancer A549, ovary cancer SK-OV-3, prostate cancer PC-3, squamous cancer A431, and mouse fibroblasts L929) were determined by the microculture tetrazolium test (MTT) method, using epothilon B as the positive control. Both bioactivity assays were performed following our standard protocols.

[1] = tested on: Chromobacterium violaceum; experiment: MIC, antibacterial test; type: cell-based; set-up: key to Minimum inhibitory concentration (MIC): –: no inhibition observed under test conditions
Method: as §1

Pseudomonas aeruginosa = experiment: MIC, antibacterial test; type: cell-based; set-up: key to Minimum inhibitory concentration (MIC): –: no inhibition observed under test conditions
Method: as §1

Escherichia coli = experiment: MIC, antibacterial test; type: cell-based; set-up: key to Minimum inhibitory concentration (MIC): –: no inhibition observed under test conditions
Method: as §1

[2] = tested on: KB 3.1, L929, A549, SK-OV-3, PC-3, A431, and MCF-7 mammalian cell lines; experiment: Cytotoxicity, summary over all tested cell lines; type: cell-based; conditions: seven mammalian cell lines; read-out: IC50 values, range over all tested cell lines
Method: as §1

Staphylococcus aureus = experiment: MIC, antibacterial test; type: cell-based; conditions: read-out: Minimum inhibitory concentration (MIC)
Method: as §1

Bacillus subtilis = experiment: MIC, antibacterial test; type: cell-based; conditions: read-out: Minimum inhibitory concentration (MIC)
Method: as §1

Micrococcus luteus = experiment: MIC, antibacterial test; type: cell-based; conditions: read-out: Minimum inhibitory concentration (MIC)
Method: as §1

Mycobacterium smegmatis = experiment: MIC, antibacterial test; type: cell-based; set-up: key: –: no inhibition observed under test conditions
Method: as §1

Pichia anomala = experiment: MIC, antifungal test; type: cell-based; set-up: key to Minimum inhibitory concentration (MIC): –: no inhibition observed under test conditions
Method: as §1

Rhodotorula glutinis = experiment: MIC, antifungal test; type: cell-based; set-up: key to Minimum inhibitory concentration (MIC): –: no inhibition observed under test conditions
Method: as §1

[3] = tested on: Schizosaccharomyces pombe; experiment: MIC, antifungal test; type: cell-based; set-up: key to Minimum inhibitory concentration (MIC): –: no inhibition observed under test conditions
Method: as §1

Mucor hiemalis = experiment: MIC, antifungal test; type: cell-based; set-up: key to Minimum inhibitory concentration (MIC): –: no inhibition observed under test conditions; conditions: for MIC: read-out: Minimum inhibitory concentration (MIC)
Method: as §1

Candida albicans = experiment: MIC, antifungal test; type: cell-based; set-up: key to Minimum inhibitory concentration (MIC): –: no inhibition observed under test conditions
Method: as §1

[4] = human, A431 squamous cancer cells
[5] = human, KB 3.1 endocervical adenocarcinoma cells
[6] = human, MCF-7 breast cancer cells
[7] = human, PC-3 prostate cancer cells
[8] = human, SK-OV-3 ovary cancer cells
[9] = read-out: Minimum inhibitory concentration (MIC)

SMILES: CCCC(=O)O[C@H]1c2cc(C)cc(O)c2C(=O)C2=C(O)[C@H]3C=C[C@]21Cc1cc2c(c(O)c13)C(=O)C1=C(O)CC[C@H](O)[C@@]1(C(=O)OC)O2 [Compound 1, Xanthoquinodin A11]
- IC50 (Cytotoxicity, MTT method; mouse): 1130 nM
- Minimum inhibitory concentration (MIC) [1]: –
- Minimum inhibitory concentration (MIC) (Pseudomonas aeruginosa): –
- Minimum inhibitory concentration (MIC) (Escherichia coli): –
- IC50 [2]: 30 to 1460 nM
- MIC (Staphylococcus aureus): 2.1 µg/mL (≈ 3.26 µM)
- MIC (Bacillus subtilis): 0.4 µg/mL (≈ 0.621 µM)
- MIC (Micrococcus luteus): 4.2 µg/mL (≈ 6.52 µM)
- Minimum inhibitory concentration (MIC) (Mycobacterium smegmatis): –
- Minimum inhibitory concentration (MIC) (Pichia anomala): –
- Minimum inhibitory concentration (MIC) (Rhodotorula glutinis): –
- Minimum inhibitory concentration (MIC) [3]: –
- MIC (Mucor hiemalis): 66.7 µg/mL (≈ 103 µM)
- Minimum inhibitory concentration (MIC) (Candida albicans): –

SMILES: CCCC(=O)O[C@H]1c2cc(C)cc(O)c2C(=O)C2=C(O)[C@H]3C=C[C@]21Cc1cc(O)c2c(c13)O[C@@]1(C(=O)OC)C(=C(O)CC[C@@H]1O)C2=O [Compound 2, Xanthoquinodin B10]
- IC50 (Cytotoxicity, MTT method; [4]): 60 nM
- IC50 (Cytotoxicity, MTT method; human, A549 lung cancer cells): 400 nM
- IC50 (Cytotoxicity, MTT method; [5]): 190 nM
- IC50 (Cytotoxicity, MTT method; [6]): 40 nM
- IC50 (Cytotoxicity, MTT method; [7]): 1060 nM
- IC50 (Cytotoxicity, MTT method; [8]): 130 nM
- IC50 (Cytotoxicity, MTT method; mouse, L929 fibroblasts): 1460 nM
- Minimum inhibitory concentration (MIC) [1]: –
- Minimum inhibitory concentration (MIC) (Pseudomonas aeruginosa): –
- Minimum inhibitory concentration (MIC) (Escherichia coli): –
- IC50 [2]: 30 to 1460 nM
- MIC (Staphylococcus aureus): 2.1 µg/mL (≈ 3.26 µM)
- MIC (Bacillus subtilis): 0.4 µg/mL (≈ 0.621 µM)
- MIC (Micrococcus luteus): 2.1 µg/mL (≈ 3.26 µM)
- Minimum inhibitory concentration (MIC) (Mycobacterium smegmatis): –
- Minimum inhibitory concentration (MIC) (Pichia anomala): –
- Minimum inhibitory concentration (MIC) (Rhodotorula glutinis): –
- Minimum inhibitory concentration (MIC) [3]: –
- Minimum inhibitory concentration (MIC) (Mucor hiemalis): –
- Minimum inhibitory concentration (MIC) (Candida albicans): –

SMILES: CCCC(=O)O[C@H]1c2cc(C)cc(O)c2C(=O)C2=C(O)[C@H]3C=C[C@]21Cc1cc(O)c2c(c13)O[C@]1(C(=O)OC)C(=C(O)CC[C@@H]1O)C2=O [Compound 3, Xanthoquinodin B11]
- IC50 (Cytotoxicity, MTT method; [4]): 50 nM
- IC50 (Cytotoxicity, MTT method; human, A549 lung cancer cells): 260 nM
- IC50 (Cytotoxicity, MTT method; [5]): 150 nM
- IC50 (Cytotoxicity, MTT method; [6]): 40 nM
- IC50 (Cytotoxicity, MTT method; [7]): 650 nM
- IC50 (Cytotoxicity, MTT method; [8]): 150 nM
- IC50 (Cytotoxicity, MTT method; mouse, L929 fibroblasts): 980 nM
- Minimum inhibitory concentration (MIC) [1]: –
- Minimum inhibitory concentration (MIC) (Pseudomonas aeruginosa): –
- Minimum inhibitory concentration (MIC) (Escherichia coli): –
- IC50 [2]: 30 to 1460 nM
- MIC (Staphylococcus aureus): 1 µg/mL (≈ 1.55 µM)
- MIC (Bacillus subtilis): 0.2 µg/mL (≈ 0.31 µM)
- MIC (Micrococcus luteus): 2.1 µg/mL (≈ 3.26 µM)
- Minimum inhibitory concentration (MIC) (Mycobacterium smegmatis): –
- Minimum inhibitory concentration (MIC) (Pichia anomala): 8.30 µg/mL (≈ 12.9 µM)
- MIC (Pichia anomala; Hansenula anomala, read-out: Minimum inhibitory concentration (MIC)): 8.3 µg/mL (≈ 12.9 µM)
- Minimum inhibitory concentration (MIC) (Rhodotorula glutinis): 2.10 µg/mL (≈ 3.26 µM)
- MIC (Rhodotorula glutinis; [9]): 2.1 µg/mL (≈ 3.26 µM)
- MIC [3, 9]: 66.7 µg/mL (≈ 103 µM)
- Minimum inhibitory concentration (MIC) (Mucor hiemalis): 2.10 µg/mL (≈ 3.26 µM)
- MIC (Mucor hiemalis): 2.1 µg/mL (≈ 3.26 µM)
- MIC (Candida albicans; [9]): 16.7 µg/mL (≈ 25.9 µM)

SMILES: CNC(C)C1CCC(N)C(OC2C(N)CC(N)C(OC3OCC(C)(O)C(NC)C3O)C2O)O1 (stereo not drawn) [gentamicin, reference compound]
- MIC (Pseudomonas aeruginosa; [9]): 0.4 µg/mL (≈ 0.838 µM)

SMILES: NC[C@H]1O[C@H](O[C@H]2[C@H](O)[C@@H](O[C@H]3O[C@H](CO)[C@@H](O)[C@H](N)[C@H]3O)[C@H](N)C[C@@H]2N)[C@H](O)[C@@H](O)[C@@H]1O [kanamycin, reference compound]
- Minimum inhibitory concentration (MIC) (Mycobacterium smegmatis): 1.70 ^3 µg/mL

SMILES: C[C@@H]1[C@H](O)[C@@H](C)/C=C/C=C/CC/C=C/C=C/C=C/C=C/C(O[C@H]2O[C@H](C)[C@@H](O)[C@H](N)[C@@H]2O)CC2O[C@](O)(CC(O)C(O)CCC(O)CC(O)CC(O)CC(=O)O[C@H]1C)CC(O)C2C(=O)O (stereo partly drawn) [nystatin, reference compound]
- Minimum inhibitory concentration (MIC) (Pichia anomala): 33.30 ^1 µg/mL
- Minimum inhibitory concentration (MIC) (Rhodotorula glutinis): 16.70 ^1 µg/mL
- Minimum inhibitory concentration (MIC) [3]: 33.30 ^1 µg/mL
- Minimum inhibitory concentration (MIC) (Mucor hiemalis): 33.30 ^1 µg/mL
- Minimum inhibitory concentration (MIC) (Candida albicans): 33.30 ^1 µg/mL

SMILES: CN(C)[C@@H]1C(O)=C(C(N)=O)C(=O)[C@@]2(O)C(O)=C3C(=O)c4c(O)cccc4[C@@](C)(O)[C@H]3[C@H](O)[C@@H]12 [oxytetracycline, reference compound]
- MIC [1, 9]: 0.8 µg/mL (≈ 1.74 µM)
- MIC (Escherichia coli; [9]): 3.3 µg/mL (≈ 7.17 µM)
- MIC (Staphylococcus aureus): 0.4 µg/mL (≈ 0.869 µM)
- MIC (Bacillus subtilis): 8.3 µg/mL (≈ 18 µM)
- MIC (Micrococcus luteus): 0.8 µg/mL (≈ 1.74 µM)
